ChEMBL document CHEMBL1201862, “PubChem BioAssay data set” (2004)
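Method: 48-hour compound exposure of cells in 96-well plates, five concentrations, linear interpolation of endpoints. Here, GI50 denotes the concentration required for 50% inhibition of growth.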 The source made the active and inactive calls. Cut-off read from the data, not from the text of the source: active = GI50 up to about 1.1 µM and inactive = higher.

Tests used:
Assay in all cases: inhibition of tumour cell growth, NCI panel, 48 h
SN12C = tested on: SN12C
HT-29 = tested on: HT-29
NCI-H522 = tested on: NCI-H522
PC-3 = tested on: PC-3
T47D = tested on: T47D
A498 = tested on: A498
SF-539 = tested on: SF-539
SK-MEL-5 = tested on: SK-MEL-5
HCT-116 = tested on: HCT-116
SK-MEL-28 = tested on: SK-MEL-28
EKVX = tested on: EKVX
MDA-MB-435 = tested on: MDA-MB-435
MDA-MB-231 = tested on: MDA-MB-231
RXF 393 = tested on: RXF 393
SW-620 = tested on: SW-620
IGROV-1 = tested on: IGROV-1
KM12 = tested on: KM12
SNB-75 = tested on: SNB-75
BT-549 = tested on: BT-549

Compound	GI50 (SN12C)	GI50 (HT-29)	GI50 (NCI-H522)	GI50 (PC-3)	GI50 (T47D)	GI50 (A498)	GI50 (SF-539)	GI50 (SK-MEL-5)	GI50 (HCT-116)	GI50 (SK-MEL-28)	GI50 (EKVX)	GI50 (MDA-MB-435)	GI50 (MDA-MB-231)	GI50 (RXF 393)	GI50 (SW-620)	GI50 (IGROV-1)	GI50 (KM12)	GI50 (SNB-75)	GI50 (BT-549)
c1cc(NC2=NCCO2)c2c(c1)OCO2	> 100 µM (inactive)	> 100 µM (inactive)	> 100 µM (inactive)	> 100 µM (inactive)	> 100 µM (inactive)	> 100 µM (inactive)	> 100 µM (inactive)	> 100 µM (inactive)	> 100 µM (inactive)	> 100 µM (inactive)	> 100 µM (inactive)	> 100 µM (inactive)	> 100 µM (inactive)	> 100 µM (inactive)	> 100 µM (inactive)	> 100 µM (inactive)	80.2 µM (inactive)	–	–
CCOC(=O)c1ccc(/N=C2\Sc3nc4ccccc4n3\C2=N\c2ccc(C(=O)OCC)cc2)cc1	40.6 µM (inactive)	19.6 µM (inactive)	24.7 µM (inactive)	37.7 µM (inactive)	48.1 µM (inactive)	34.3 µM (inactive)	21 µM (inactive)	25.9 µM (inactive)	6.58 µM (inactive)	39.2 µM (inactive)	42.6 µM (inactive)	59.2 µM (inactive)	22.5 µM (inactive)	28.8 µM (inactive)	21.5 µM (inactive)	19.5 µM (inactive)	20.1 µM (inactive)	–	–
Cc1cc(-c2nc3ccccc3s2)ccc1NS(=O)(=O)O	> 5.92 µM (inactive)	> 4.65 µM (inactive)	–	–	–	65.9 µM (inactive)	0.0508 µM (active)	> 100 µM (inactive)	> 4.65 µM (inactive)	> 42 µM (inactive)	–	> 7.08 µM (inactive)	> 24.1 µM (inactive)	–	> 4.65 µM (inactive)	1.11 µM (active)	> 4.65 µM (inactive)	> 67 µM (inactive)	0.544 µM (active)
CN(C)C(=O)Oc1ccc(C(=S)Nc2ccccc2)cc1	–	51.2 µM (inactive)	64.4 µM (inactive)	96.4 µM (inactive)	53.6 µM (inactive)	> 100 µM (inactive)	> 100 µM (inactive)	24 µM (inactive)	> 100 µM (inactive)	33.1 µM (inactive)	45.9 µM (inactive)	42.3 µM (inactive)	–	–	> 100 µM (inactive)	34 µM (inactive)	49.7 µM (inactive)	–	32 µM (inactive)
CCN1CCN=C2c3cc(OC)ccc3Nc3c([N+](=O)[O-])ccc1c32	0.796 µM (active)	0.705 µM (active)	–	1 µM (active)	3.32 µM (inactive)	–	–	1.17 µM (inactive)	–	2.32 µM (inactive)	2.12 µM (inactive)	1.01 µM (active)	0.736 µM (active)	0.556 µM (active)	0.472 µM (active)	1.67 µM (inactive)	0.713 µM (active)	1.68 µM (inactive)	–
O=[N+]([O-])/C=C\c1c[nH]c2ccc(OCc3ccccc3)cc12	2.24 µM (inactive)	–	10.2 µM (inactive)	7.33 µM (inactive)	2.64 µM (inactive)	10.5 µM (inactive)	10.4 µM (inactive)	5.06 µM (inactive)	1.73 µM (inactive)	3.03 µM (inactive)	13.4 µM (inactive)	2.16 µM (inactive)	3.57 µM (inactive)	2.58 µM (inactive)	2.51 µM (inactive)	4.15 µM (inactive)	2.09 µM (inactive)	–	–
O=C([O-])C1([n+]2c(-c3ccccc3)cc(-c3ccccc3)cc2-c2ccccc2)CC1	> 100 µM (inactive)	48.8 µM (inactive)	54.7 µM (inactive)	80.4 µM (inactive)	16 µM (inactive)	> 100 µM (inactive)	> 100 µM (inactive)	19.6 µM (inactive)	41.1 µM (inactive)	> 100 µM (inactive)	22.7 µM (inactive)	19.2 µM (inactive)	–	> 100 µM (inactive)	> 100 µM (inactive)	32.8 µM (inactive)	–	46.8 µM (inactive)	–
CCc1cc2c(c3c1CCCC3=O)CC1(Cc3ccc(C(=O)OC)cc3C1)C2 (stereo unspecified)	> 100 µM (inactive)	68.1 µM (inactive)	51.1 µM (inactive)	14.4 µM (inactive)	65.2 µM (inactive)	> 100 µM (inactive)	> 100 µM (inactive)	15 µM (inactive)	37.9 µM (inactive)	64 µM (inactive)	96.6 µM (inactive)	37.2 µM (inactive)	> 100 µM (inactive)	32.5 µM (inactive)	> 100 µM (inactive)	> 100 µM (inactive)	30.6 µM (inactive)	26.7 µM (inactive)	–
CCn1c(=O)c2nc(SC)sc2n(-c2ccc(C)cc2)c1=O	> 100 µM (inactive)	> 100 µM (inactive)	> 100 µM (inactive)	> 100 µM (inactive)	> 100 µM (inactive)	–	> 100 µM (inactive)	> 100 µM (inactive)	> 100 µM (inactive)	> 100 µM (inactive)	–	2.17 µM (inactive)	> 100 µM (inactive)	> 100 µM (inactive)	> 100 µM (inactive)	> 100 µM (inactive)	88.9 µM (inactive)	29.4 µM (inactive)	–
CCOC(=O)C(=Cc1[nH]c2ccccc2c1-c1c[nH]c2ccccc12)C(=O)OCC	15 µM (inactive)	5 µM (inactive)	54.7 µM (inactive)	10.3 µM (inactive)	–	14.5 µM (inactive)	18.5 µM (inactive)	15.5 µM (inactive)	10.8 µM (inactive)	–	16.1 µM (inactive)	5.96 µM (inactive)	16.9 µM (inactive)	10.8 µM (inactive)	–	11.1 µM (inactive)	4.69 µM (inactive)	12.9 µM (inactive)	14.7 µM (inactive)
COc1ccc(/C=C2\CCC(C)C3=C2N=c2s/c(=C/c4cccc(Br)c4)c(=O)n2C3c2ccc(OC)c(OC)c2)cc1OC (stereo unspecified)	> 100 µM (inactive)	> 100 µM (inactive)	–	> 100 µM (inactive)	–	> 100 µM (inactive)	–	> 100 µM (inactive)	> 100 µM (inactive)	> 100 µM (inactive)	> 100 µM (inactive)	> 100 µM (inactive)	> 100 µM (inactive)	> 100 µM (inactive)	> 100 µM (inactive)	> 100 µM (inactive)	> 100 µM (inactive)	–	–
O=[N+]([O-])c1cc(Cl)ccc1S(=O)(=O)c1cc(Cl)cc2c1NCCC2	> 100 µM (inactive)	45.6 µM (inactive)	–	69.8 µM (inactive)	–	> 100 µM (inactive)	> 100 µM (inactive)	21.3 µM (inactive)	63.1 µM (inactive)	35.8 µM (inactive)	85.7 µM (inactive)	39.6 µM (inactive)	> 100 µM (inactive)	41.4 µM (inactive)	> 100 µM (inactive)	29.1 µM (inactive)	52.7 µM (inactive)	18.4 µM (inactive)	56.9 µM (inactive)
CC(O)c1nc(C#N)c(N)o1 (stereo unspecified)	> 100 µM (inactive)	> 100 µM (inactive)	> 100 µM (inactive)	> 100 µM (inactive)	> 100 µM (inactive)	> 100 µM (inactive)	> 100 µM (inactive)	> 100 µM (inactive)	> 100 µM (inactive)	> 100 µM (inactive)	> 100 µM (inactive)	–	> 100 µM (inactive)	–	> 100 µM (inactive)	> 100 µM (inactive)	> 100 µM (inactive)	> 100 µM (inactive)	–
COc1cccc(N2CCc3c(C)c(C#N)c4nc5ccccc5n4c32)c1	> 100 µM (inactive)	> 100 µM (inactive)	15.3 µM (inactive)	> 100 µM (inactive)	–	> 100 µM (inactive)	45.7 µM (inactive)	> 100 µM (inactive)	> 100 µM (inactive)	> 100 µM (inactive)	–	> 100 µM (inactive)	12.2 µM (inactive)	45.1 µM (inactive)	> 100 µM (inactive)	> 100 µM (inactive)	–	41.5 µM (inactive)	> 100 µM (inactive)
O=C(O)c1ccc(Nc2nc3ccc(C(F)(F)F)cc3nc2-c2ccccc2)cc1	77.6 µM (inactive)	> 10 µM (inactive)	28.6 µM (inactive)	50.9 µM (inactive)	15.6 µM (inactive)	–	27 µM (inactive)	29.2 µM (inactive)	29.6 µM (inactive)	37.8 µM (inactive)	29 µM (inactive)	34.9 µM (inactive)	–	20.8 µM (inactive)	45.7 µM (inactive)	43.4 µM (inactive)	> 10 µM (inactive)	40 µM (inactive)	–
Cn1c(=O)n2n(c1=O)C(S(=O)(=O)c1ccccc1)C2 (stereo unspecified)	> 100 µM (inactive)	> 100 µM (inactive)	> 100 µM (inactive)	> 100 µM (inactive)	–	–	> 100 µM (inactive)	> 100 µM (inactive)	> 100 µM (inactive)	> 100 µM (inactive)	> 100 µM (inactive)	> 100 µM (inactive)	> 100 µM (inactive)	> 100 µM (inactive)	> 100 µM (inactive)	> 100 µM (inactive)	> 100 µM (inactive)	> 100 µM (inactive)	> 100 µM (inactive)
COC[C@H](Cc1ccccc1)/N=C/c1ccccc1	> 100 µM (inactive)	> 100 µM (inactive)	> 100 µM (inactive)	> 100 µM (inactive)	> 100 µM (inactive)	–	–	> 100 µM (inactive)	> 100 µM (inactive)	> 100 µM (inactive)	> 100 µM (inactive)	> 100 µM (inactive)	–	> 100 µM (inactive)	> 100 µM (inactive)	> 100 µM (inactive)	> 100 µM (inactive)	> 100 µM (inactive)	> 100 µM (inactive)
